Measurements as given in ChEMBL document CHEMBL3046685, “Otebo bean (Phaseolus vulgaris) sensitivity to pre-emergence herbicides” (Crop Prot, 2006).

Experiments:
Phaseolus vulgaris [1] = experiment: Phytotoxicity in Phaseolus vulgaris (otebo bean) assessed as plant height at 2000 g ai/ha applied as spray during pre-emergence treatment for 1 to 2 days measured 28 days post emergence (reference value: 29 cm); type: organism-based; conditions: in vivo, other
Phaseolus vulgaris [2] = experiment: Phytotoxicity in Phaseolus vulgaris (otebo bean) assessed as plant height at 1000 g ai/ha applied as spray during pre-emergence treatment for 1 to 2 days measured 28 days post emergence (reference value: 29 cm); type: organism-based; conditions: in vivo, other
Phaseolus vulgaris [3] = experiment: Phytotoxicity in Phaseolus vulgaris (otebo bean) assessed as shoot dry weight at 1000 g ai/ha applied as spray during pre-emergence treatment for 1 to 2 days measured 42 days post emergence (reference value: 164 g); type: organism-based; conditions: in vivo, other
Phaseolus vulgaris [4] = experiment: Increase in Phaseolus vulgaris (otebo bean) yield at 2000 g ai/ha applied as spray during pre-emergence treatment for 1 to 2 days (reference value: 3.8 t/ha); type: functional
Phaseolus vulgaris [5] = experiment: Increase in Phaseolus vulgaris (otebo bean) yield at 1000 g ai/ha applied as spray during pre-emergence treatment for 1 to 2 days (reference value: 3.8 t/ha); type: functional
Phaseolus vulgaris [6] = experiment: Phytotoxicity in Phaseolus vulgaris (otebo bean) assessed as visual injury at 2000 g ai/ha applied as spray during pre-emergence treatment for 1 to 2 days measured 7 days post emergence relative to untreated control; type: organism-based; conditions: in vivo, other
Phaseolus vulgaris [7] = experiment: Phytotoxicity in Phaseolus vulgaris (otebo bean) assessed as change in moisture content at 1000 to 2000 g ai/ha applied as spray during preemergence treatment for 1 to 2 days; type: organism-based; conditions: in vivo, other
Phaseolus vulgaris [8] = experiment: Phytotoxicity in Phaseolus vulgaris (otebo bean) assessed as shoot dry weight at 2000 g ai/ha applied as spray during pre-emergence treatment for 1 to 2 days measured 42 days post emergence (reference value: 164 g); type: organism-based; conditions: in vivo, other
Phaseolus vulgaris [9] = experiment: Phytotoxicity in Phaseolus vulgaris (otebo bean) assessed as visual injury at 2000 g ai/ha applied as spray during pre-emergence treatment for 1 to 2 days measured 28 days post emergence relative to untreated control; type: organism-based; conditions: in vivo, other
Phaseolus vulgaris [10] = experiment: Phytotoxicity in Phaseolus vulgaris (otebo bean) assessed as visual injury at 1000 g ai/ha applied as spray during pre-emergence treatment for 1 to 2 days measured 28 days post emergence relative to untreated control; type: organism-based; conditions: in vivo, other
Phaseolus vulgaris [11] = experiment: Phytotoxicity in Phaseolus vulgaris (otebo bean) assessed as visual injury at 2000 g ai/ha applied as spray during pre-emergence treatment for 1 to 2 days measured 14 days post emergence relative to untreated control; type: organism-based; conditions: in vivo, other
Phaseolus vulgaris [12] = experiment: Phytotoxicity in Phaseolus vulgaris (otebo bean) assessed as visual injury at 1000 g ai/ha applied as spray during pre-emergence treatment for 1 to 2 days measured 14 days post emergence relative to untreated control; type: organism-based; conditions: in vivo, other
Phaseolus vulgaris [13] = experiment: Phytotoxicity in Phaseolus vulgaris (otebo bean) assessed as visual injury at 1000 g ai/ha applied as spray during pre-emergence treatment for 1 to 2 days measured 7 days post emergence relative to untreated control; type: organism-based; conditions: in vivo, other
Phaseolus vulgaris [14] = experiment: Phytotoxicity in Phaseolus vulgaris (otebo bean) assessed as plant height at 75 g ai/ha applied as spray during pre-emergence treatment for 1 to 2 days measured 28 days post emergence (reference value: 29 cm); type: organism-based; conditions: in vivo, other
Phaseolus vulgaris [15] = experiment: Phytotoxicity in Phaseolus vulgaris (black bean) assessed as visual injury treated through soil application relative to control; type: organism-based; conditions: in vivo, other
Phaseolus vulgaris [16] = experiment: Phytotoxicity in Phaseolus vulgaris (cranberry bean) assessed as visual injury at 0.075 to 0.15 kg/ha applied during pre-emergence relative to control; type: organism-based; conditions: in vivo, other
Phaseolus vulgaris [17] = experiment: Increase in Phaseolus vulgaris (otebo bean) yield at 150 g ai/ha applied as spray during pre-emergence treatment for 1 to 2 days (reference value: 3.8 t/ha); type: functional
Phaseolus vulgaris [18] = experiment: Increase in Phaseolus vulgaris (otebo bean) yield at 75 g ai/ha applied as spray during pre-emergence treatment for 1 to 2 days (reference value: 3.8 t/ha); type: functional
Phaseolus vulgaris [19] = experiment: Phytotoxicity in Phaseolus vulgaris (black bean) assessed as reduction in crop yield treated through soil application relative to control; type: organism-based; conditions: in vivo, other
Phaseolus vulgaris [20] = experiment: Phytotoxicity in Phaseolus vulgaris (cranberry bean) assessed as visual injury at 0.075 to 0.15 kg/ha applied prior to planting relative to control; type: organism-based; conditions: in vivo, other
Phaseolus vulgaris [21] = experiment: Phytotoxicity in Phaseolus vulgaris (dry bean) assessed as visual injury relative to control; type: organism-based; conditions: in vivo
Phaseolus vulgaris [22] = experiment: Phytotoxicity in Phaseolus vulgaris (pinto bean) assessed as visual injury at 75 g ai/ha applied prior to planting relative to control; type: organism-based; conditions: in vivo, other
Phaseolus vulgaris [23] = experiment: Phytotoxicity in Phaseolus vulgaris (otebo bean) assessed as change in moisture content at 75 to 150 g ai/ha applied as spray during preemergence treatment for 1 to 2 days; type: organism-based; conditions: in vivo, other
Phaseolus vulgaris [24] = experiment: Phytotoxicity in Phaseolus vulgaris (otebo bean) assessed as shoot dry weight at 150 g ai/ha applied as spray during pre-emergence treatment for 1 to 2 days measured 42 days post emergence (reference value: 164 g); type: organism-based; conditions: in vivo, other
Phaseolus vulgaris [25] = experiment: Phytotoxicity in Phaseolus vulgaris (otebo bean) assessed as shoot dry weight at 75 g ai/ha applied as spray during pre-emergence treatment for 1 to 2 days measured 42 days post emergence (reference value: 164 g); type: organism-based; conditions: in vivo, other
Phaseolus vulgaris [26] = experiment: Phytotoxicity in Phaseolus vulgaris (otebo bean) assessed as plant height at 150 g ai/ha applied as spray during pre-emergence treatment for 1 to 2 days measured 28 days post emergence (reference value: 29 cm); type: organism-based; conditions: in vivo, other
Phaseolus vulgaris [27] = experiment: Phytotoxicity in Phaseolus vulgaris (otebo bean) assessed as visual injury at 150 g ai/ha applied as spray during pre-emergence treatment for 1 to 2 days measured 28 days post emergence relative to untreated control; type: organism-based; conditions: in vivo, other
Phaseolus vulgaris [28] = experiment: Phytotoxicity in Phaseolus vulgaris (otebo bean) assessed as visual injury at 75 g ai/ha applied as spray during pre-emergence treatment for 1 to 2 days measured 28 days post emergence relative to untreated control; type: organism-based; conditions: in vivo, other
Phaseolus vulgaris [29] = experiment: Phytotoxicity in Phaseolus vulgaris (otebo bean) assessed as visual injury at 150 g ai/ha applied as spray during pre-emergence treatment for 1 to 2 days measured 14 days post emergence relative to untreated control; type: organism-based; conditions: in vivo, other
Phaseolus vulgaris [30] = experiment: Phytotoxicity in Phaseolus vulgaris (otebo bean) assessed as visual injury at 75 g ai/ha applied as spray during pre-emergence treatment for 1 to 2 days measured 14 days post emergence relative to untreated control; type: organism-based; conditions: in vivo, other
Phaseolus vulgaris [31] = experiment: Phytotoxicity in Phaseolus vulgaris (otebo bean) assessed as visual injury at 150 g ai/ha applied as spray during pre-emergence treatment for 1 to 2 days measured 7 days post emergence relative to untreated control; type: organism-based; conditions: in vivo, other
Phaseolus vulgaris [32] = experiment: Phytotoxicity in Phaseolus vulgaris (otebo bean) assessed as visual injury at 75 g ai/ha applied as spray during pre-emergence treatment for 1 to 2 days measured 7 days post emergence relative to untreated control; type: organism-based; conditions: in vivo, other

With `CC1(C)CON(Cc2ccccc2Cl)C1=O` [CLOMAZONE] the Activity (Phaseolus vulgaris [1]) was 26 cm, the Activity (Phaseolus vulgaris [2]) was 28 cm and the Activity (Phaseolus vulgaris [3]) was 143 g. It also gave a Crop_yield (Phaseolus vulgaris [4]) of 4.1 tons/ha, a Crop_yield (Phaseolus vulgaris [5]) of 4.5 tons/ha and an Activity (Phaseolus vulgaris [6]) of 13%. The Activity (Phaseolus vulgaris [7]) was “Non-toxic”, the Activity (Phaseolus vulgaris [8]) was 123 g and the Activity (Phaseolus vulgaris [9]) was 9%. For the same molecule, the Activity (Phaseolus vulgaris [10]) was 2%, the Activity (Phaseolus vulgaris [11]) was 12% and the Activity (Phaseolus vulgaris [12]) was 5%. The Activity (Phaseolus vulgaris [13]) was 5%.
For `CCc1cnc(C2=NC(C)(C(C)C)C(=O)N2)c(C(=O)O)c1` (configuration not stated) [IMAZETHAPYR], the Activity (Phaseolus vulgaris [14]) was 26 cm, the Activity (Phaseolus vulgaris [15]) was “<= 6%” and the Activity (Phaseolus vulgaris [16]) was less than 5%. For the same molecule, the Crop_yield (Phaseolus vulgaris [17]) was 2.9 tons/ha, the Crop_yield (Phaseolus vulgaris [18]) was 3.2 tons/ha and the Crop_yield (Phaseolus vulgaris [19]) was 49%. For the same molecule, the Activity (Phaseolus vulgaris [20]) was less than 5%, the Activity (Phaseolus vulgaris [21]) was “<= 20%” and the Activity (Phaseolus vulgaris [22]) was less than 6%. The Activity (Phaseolus vulgaris [23]) was “Non-toxic”, the Activity (Phaseolus vulgaris [24]) was 95 g and the Activity (Phaseolus vulgaris [25]) was 118 g. The Activity (Phaseolus vulgaris [26]) was 22 cm, the Activity (Phaseolus vulgaris [27]) was 16% and the Activity (Phaseolus vulgaris [28]) was 6%. The Activity (Phaseolus vulgaris [29]) was 1%, the Activity (Phaseolus vulgaris [30]) was 0% and the Activity (Phaseolus vulgaris [31]) was 0%. It also gave an Activity (Phaseolus vulgaris [32]) of 0%.
